Measurements from US20130210623A1, “PESTICIDAL MIXTURES INCLUDING ISOXAZOLINE DERIVATIVES” (SYNGENTA CROP PROTECTION LLC, priority 2010, published 2013).

Assays:
[1] = tested on: Heliothis virescens (Tobacco Budworm); experiment: Heliothis virescens egg/larval mortality on artificial diet, 24-well microtiter plate; type: in vivo; settings: 4 days
Experimental: Heliothis virescens (Tobacco Budworm)
Eggs (0-24 h old) are placed in 24-well microtiter plate on artificial diet and treated with test solutions (DMSO) by pipetting. After an incubation period of 4 days, samples are checked for larval mortality.

[2] = tested on: Tetranychus urticae (Two-Spotted Spider Mite); experiment: Tetranychus urticae mixed population mortality on sprayed bean leaf discs; type: in vivo
From the text: Tetranychus urticae (Two-Spotted Spider Mite)
Bean leaf discs on agar in 24-well microtiter plates are sprayed with test solutions (DMSO). After drying, the leaf discs are infested with mite populations of mixed ages. 8 days later, discs are checked for mixed population mortality.

CC1(C)[C@H](C(=O)O[C@H](C#N)c2cccc(Oc3ccccc3)c2)[C@@H]1/C=C(\Cl)C(F)(F)F (racemic) [Lambda Cyhalothrin, lambda-cyhalothrin]
AVERAGE DEAD IN % Lambda Cyhalothrin ([1]; Table 2, Lambda Cyhalothrin alone 0.0125 ppm AI): 0% | AVERAGE DEAD IN % Lambda Cyhalothrin ([1]; Table 2, Lambda Cyhalothrin alone 0.025 ppm AI): 0% | AVERAGE DEAD IN % Lambda Cyhalothrin ([1]; Table 2, Lambda Cyhalothrin alone 0.05 ppm AI): 0% | AVERAGE DEAD IN % Lambda Cyhalothrin ([1]; Table 2, Lambda Cyhalothrin alone 0.1 ppm AI): 50% | AVERAGE DEAD IN % Lambda Cyhalothrin ([1]; Table 2, Lambda Cyhalothrin alone 0.2 ppm AI): 80% | AVERAGE DEAD IN % Lambda Cyhalothrin ([1]; Table 2, Lambda Cyhalothrin alone 0.4 ppm AI): 90% | AVERAGE DEAD IN % Lambda Cyhalothrin ([2]; Table 6, Lambda Cyhalothrin alone 6.25 ppm AI, 8 days): 0% | AVERAGE DEAD IN % Lambda Cyhalothrin ([2]; Table 6, Lambda Cyhalothrin alone 12.5 ppm AI, 8 days): 50% | AVERAGE DEAD IN % Lambda Cyhalothrin ([2]; Table 6, Lambda Cyhalothrin alone 25 ppm AI, 8 days): 90% | AVERAGE DEAD IN % Lambda Cyhalothrin ([2]; Table 6, Lambda Cyhalothrin alone 50 ppm AI, 8 days): 85%

CN/C(=N\[N+](=O)[O-])NCc1cnc(Cl)s1 [Clothianidin, clothianidin]
AVERAGE DEAD IN % Clothianidin ([1]; Table 4, Clothianidin alone 1.5 ppm AI): 0% | AVERAGE DEAD IN % Clothianidin ([1]; Table 4, Clothianidin alone 3 ppm AI): 0% | AVERAGE DEAD IN % Clothianidin ([1]; Table 4, Clothianidin alone 6 ppm AI): 25% | AVERAGE DEAD IN % Clothianidin ([1]; Table 4, Clothianidin alone 12 ppm AI): 50% | AVERAGE DEAD IN % Clothianidin ([1]; Table 4, Clothianidin alone 24 ppm AI): 85% | AVERAGE DEAD IN % Clothianidin ([2]; Table 8, Clothianidin alone 50 ppm AI, 8 days): 0% | AVERAGE DEAD IN % Clothianidin ([2]; Table 8, Clothianidin alone 100 ppm AI, 8 days): 0% | AVERAGE DEAD IN % Clothianidin ([2]; Table 8, Clothianidin alone 200 ppm AI, 8 days): 0% | AVERAGE DEAD IN % Clothianidin ([2]; Table 8, Clothianidin alone 400 ppm AI, 8 days): 0% | AVERAGE DEAD IN % Clothianidin ([2]; Table 8, Clothianidin alone 800 ppm AI, 8 days): 0%

Cc1cc(C2=NO[C@@](c3cc(Cl)cc(Cl)c3)(C(F)(F)F)C2)ccc1C(=O)NCC(=O)NCC(F)(F)F [I-A2]
AVERAGE DEAD IN % COMPOUND I-A2 ([1]; Table 1, I-A2 alone 0.025 ppm AI): 0% | AVERAGE DEAD IN % COMPOUND I-A2 ([1]; Table 1, I-A2 alone 0.05 ppm AI): 0% | AVERAGE DEAD IN % COMPOUND I-A2 ([1]; Table 1, I-A2 alone 0.1 ppm AI): 5% | AVERAGE DEAD IN % COMPOUND I-A2 ([1]; Table 1, I-A2 alone 0.2 ppm AI): 75% | AVERAGE DEAD IN % COMPOUND I-A2 ([1]; Table 1, I-A2 alone 0.4 ppm AI): 94% | AVERAGE DEAD IN % COMPOUND I-A2 ([1]; Table 1, I-A2 alone 0.8 ppm AI): 99% | AVERAGE DEAD IN % COMPOUND I-A2 ([1]; Table 2, I-A2 alone 0.025 ppm AI): 0% | AVERAGE DEAD IN % COMPOUND I-A2 ([1]; Table 2, I-A2 alone 0.05 ppm AI): 0% | AVERAGE DEAD IN % COMPOUND I-A2 ([1]; Table 2, I-A2 alone 0.1 ppm AI): 5% | AVERAGE DEAD IN % COMPOUND I-A2 ([1]; Table 2, I-A2 alone 0.2 ppm AI): 75% | AVERAGE DEAD IN % COMPOUND I-A2 ([1]; Table 2, I-A2 alone 0.4 ppm AI): 94% | AVERAGE DEAD IN % COMPOUND I-A2 ([1]; Table 2, I-A2 alone 0.8 ppm AI): 99% | AVERAGE DEAD IN % COMPOUND I-A2 ([1]; Table 3, I-A2 alone 0.05 ppm AI): 0% | AVERAGE DEAD IN % COMPOUND I-A2 ([1]; Table 3, I-A2 alone 0.1 ppm AI): 0% | AVERAGE DEAD IN % COMPOUND I-A2 ([1]; Table 3, I-A2 alone 0.2 ppm AI): 73% | AVERAGE DEAD IN % COMPOUND I-A2 ([1]; Table 3, I-A2 alone 0.4 ppm AI): 89% | AVERAGE DEAD IN % COMPOUND I-A2 ([1]; Table 3, I-A2 alone 0.8 ppm AI): 98% | AVERAGE DEAD IN % COMPOUND I-A2 ([1]; Table 4, I-A2 alone 0.05 ppm AI): 0% | AVERAGE DEAD IN % COMPOUND I-A2 ([1]; Table 4, I-A2 alone 0.1 ppm AI): 0% | AVERAGE DEAD IN % COMPOUND I-A2 ([1]; Table 4, I-A2 alone 0.2 ppm AI): 73% | AVERAGE DEAD IN % COMPOUND I-A2 ([1]; Table 4, I-A2 alone 0.4 ppm AI): 89% | AVERAGE DEAD IN % COMPOUND I-A2 ([1]; Table 4, I-A2 alone 0.8 ppm AI): 98% | AVERAGE DEAD IN % COMPOUND I-A2 ([2]; Table 5, I-A2 alone 0.1 ppm AI, 8 days): 17% | AVERAGE DEAD IN % COMPOUND I-A2 ([2]; Table 5, I-A2 alone 0.2 ppm AI, 8 days): 83% | AVERAGE DEAD IN % COMPOUND I-A2 ([2]; Table 5, I-A2 alone 0.4 ppm AI, 8 days): 100% | AVERAGE DEAD IN % COMPOUND I-A2 ([2]; Table 6, I-A2 alone 0.1 ppm AI, 8 days): 17% | AVERAGE DEAD IN % COMPOUND I-A2 ([2]; Table 6, I-A2 alone 0.2 ppm AI, 8 days): 83% | AVERAGE DEAD IN % COMPOUND I-A2 ([2]; Table 6, I-A2 alone 0.8 ppm AI, 8 days): 100% | AVERAGE DEAD IN % COMPOUND I-A2 ([2]; Table 7, I-A2 alone 0.025 ppm AI, 0 * = 0% control assumed since control at the higher rate was also 0%): 0 * % | AVERAGE DEAD IN % COMPOUND I-A2 ([2]; Table 7, I-A2 alone 0.05 ppm AI, 0 * = 0% control assumed since control at the higher rate was also 0%): 0 * % | AVERAGE DEAD IN % COMPOUND I-A2 ([2]; Table 7, I-A2 alone 0.1 ppm AI, 8 days): 0% | AVERAGE DEAD IN % COMPOUND I-A2 ([2]; Table 7, I-A2 alone 0.2 ppm AI, 8 days): 85% | AVERAGE DEAD IN % COMPOUND I-A2 ([2]; Table 7, I-A2 alone 0.4 ppm AI, 8 days): 95% | AVERAGE DEAD IN % COMPOUND I-A2 ([2]; Table 8, I-A2 alone 0.1 ppm AI, 8 days): 0% | AVERAGE DEAD IN % COMPOUND I-A2 ([2]; Table 8, I-A2 alone 0.2 ppm AI, 8 days): 85% | AVERAGE DEAD IN % COMPOUND I-A2 ([2]; Table 8, I-A2 alone 0.4 ppm AI, 8 days): 95%

CCOC(=O)OC1=C(c2cc(C)ccc2C)C(=O)N[C@]12CC[C@@H](OC)CC2 [Spirotetramat, spirotetramat]
AVERAGE DEAD IN % Spirotetramat ([1]; Table 3, Spirotetramat alone 25 ppm AI): 10% | AVERAGE DEAD IN % Spirotetramat ([1]; Table 3, Spirotetramat alone 50 ppm AI): 0% | AVERAGE DEAD IN % Spirotetramat ([1]; Table 3, Spirotetramat alone 100 ppm AI): 0% | AVERAGE DEAD IN % Spirotetramat ([1]; Table 3, Spirotetramat alone 200 ppm AI): 0% | AVERAGE DEAD IN % Spirotetramat ([1]; Table 3, Spirotetramat alone 400 ppm AI): 15% | AVERAGE DEAD IN % Spirotetramat ([1]; Table 3, Spirotetramat alone 800 ppm AI): 80% | AVERAGE DEAD IN % Spirotetramat ([2]; Table 7, Spirotetramat alone 12.5 ppm AI, 8 days): 75% | AVERAGE DEAD IN % Spirotetramat ([2]; Table 7, Spirotetramat alone 25 ppm AI, 8 days): 85% | AVERAGE DEAD IN % Spirotetramat ([2]; Table 7, Spirotetramat alone 50 ppm AI, 8 days): 90% | AVERAGE DEAD IN % Spirotetramat ([2]; Table 7, Spirotetramat alone 100 ppm AI, 8 days): 90% | AVERAGE DEAD IN % Spirotetramat ([2]; Table 7, Spirotetramat alone 200 ppm AI, 8 days): 90%

abamectin
AVERAGE DEAD IN % Abamectin ([1]; Table 1, Abamectin alone 0.1 ppm AI): 0% | AVERAGE DEAD IN % Abamectin ([1]; Table 1, Abamectin alone 0.2 ppm AI): 0% | AVERAGE DEAD IN % Abamectin ([1]; Table 1, Abamectin alone 0.4 ppm AI): 10% | AVERAGE DEAD IN % Abamectin ([1]; Table 1, Abamectin alone 0.8 ppm AI): 65% | AVERAGE DEAD IN % Abamectin ([1]; Table 1, Abamectin alone 1.6 ppm AI): 90% | AVERAGE DEAD IN % Abamectin ([1]; Table 1, Abamectin alone 3.2 ppm AI): 90% | AVERAGE DEAD IN % Abamectin ([2]; Table 5, Abamectin alone 0.0125 ppm AI, 8 days): 0% | AVERAGE DEAD IN % Abamectin ([2]; Table 5, Abamectin alone 0.025 ppm AI, 8 days): 25% | AVERAGE DEAD IN % Abamectin ([2]; Table 5, Abamectin alone 0.05 ppm AI, 8 days): 55% | AVERAGE DEAD IN % Abamectin ([2]; Table 5, Abamectin alone 0.1 ppm AI, 8 days): 55% | AVERAGE DEAD IN % Abamectin ([2]; Table 5, Abamectin alone 0.2 ppm AI, 8 days): 60%
